From EP1100483B1, “GLUCOCORTICOID-SELECTIVE ANTI-INFLAMMATORY AGENTS” (Abbott Laboratories, priority 1998, dated 2000)

target: T1, human glucocorticoid receptor-α [GRX] isoform (Homo sapiens, UniProt P04150); test: glucocorticoid receptor (GR) cytosol binding assay, [3H]-dexamethasone competition; conditions: not given
T1 construct: purchased Ligand Pharmaceuticals (San Diego, CA); host or cells: insect SF21 cells (baculovirus)
T1 sequence (P04150 1-777): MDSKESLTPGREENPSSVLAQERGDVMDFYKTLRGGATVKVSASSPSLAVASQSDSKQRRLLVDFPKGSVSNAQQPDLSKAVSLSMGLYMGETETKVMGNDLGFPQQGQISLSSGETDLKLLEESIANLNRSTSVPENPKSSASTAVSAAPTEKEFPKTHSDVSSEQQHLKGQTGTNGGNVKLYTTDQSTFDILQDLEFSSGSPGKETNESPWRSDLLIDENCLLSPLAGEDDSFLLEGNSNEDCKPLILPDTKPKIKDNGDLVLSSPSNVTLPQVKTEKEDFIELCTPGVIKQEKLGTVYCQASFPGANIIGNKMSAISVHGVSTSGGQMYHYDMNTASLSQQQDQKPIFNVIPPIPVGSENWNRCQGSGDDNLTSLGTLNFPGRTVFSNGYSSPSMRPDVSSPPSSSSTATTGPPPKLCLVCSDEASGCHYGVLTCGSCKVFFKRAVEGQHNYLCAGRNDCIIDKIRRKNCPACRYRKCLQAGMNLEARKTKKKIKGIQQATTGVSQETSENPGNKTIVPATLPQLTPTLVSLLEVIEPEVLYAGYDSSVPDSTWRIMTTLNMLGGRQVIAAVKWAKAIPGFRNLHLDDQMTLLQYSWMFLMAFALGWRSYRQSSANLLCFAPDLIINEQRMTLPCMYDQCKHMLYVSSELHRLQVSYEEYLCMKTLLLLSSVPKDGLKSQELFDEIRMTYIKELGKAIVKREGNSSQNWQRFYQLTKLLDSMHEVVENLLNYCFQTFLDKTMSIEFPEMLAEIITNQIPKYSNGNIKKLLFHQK
Excerpt: For glucocorticoid receptor (OR) cytosol binding assays, the procedure described in Anal. […] Briefly, cytosol preparations of human glucocorticoid receptor-α [GRX] isoform and human progesterone receptor-A [PRA] isoform were obtained from Ligand Pharmaceuticals (San Diego, CA). Both receptor cDNAs were cloned into baculovirus expression vectors and expressed in insect SF21 cells. […] Glass fiber type C multiscreen MAFC NOB plates were from Millipore ( Burlington, MA). Hydroxyapatide Bio-Gel HTP gel was obtained from Bio-Rad Laboratories (Hercules. CA). Tris(hydroxymethyl)aminomethane (Tris), ethylenediaminetetraacetic acid (EDTA), glycerol, dithiothreitol (DTT) and sodium moylybdate were obtained from Sigma Chemicals (St. Louis, MO). Microscint-20 scintillation fluid was obtained from Packard Instrument (Meriden, CT). […] GRX and PRA binding reactions were performed in Millipore Multiscreen plates. […] Specific binding was defined as the difference between binding of [^3H]Dex in the absence and in the presence of 1µM unlabeled Dex. After an overnight incubation, 50 µL of hydroxyapatite (25 % weight/volume) slurry were added to each well and plates were incubated for 10 min at 4 °C in a plate shaker. Plates were suctioned with a Millipore vacuum manifold and each well was rinsed with 300 µL of ice-cold binding buffer. A 250 µL aliquot of Packard Microscint-20 was added to each well and the wells were shaken at room temperature for 20 minutes. The amount of radioactivity was determined with a Packard TopCount plate reader.

| Structure (SMILES) | Ki [nM] |
| --- | --- |
| CNc1ccc(C(c2ccc(N(C)C)cc2)c2cc([N+](=O)[O-])ccc2Cl)cc1 (stereo not shown) [Example 39, 4'-dimethylamino-4"-methylamino-2-chloro-5-nitrotriphenylmethane] | 127 |
| CN(C)c1ccc(C(c2ccc(N(C)C)cc2)c2cc(Cl)ccc2Cl)cc1 [Example 24, 4',4" bis(dimethylamino)-2,5-dichlorotriphenylmethane] | 306 |
| CN(C)c1ccc(C(c2ccc(N(C)CCO)cc2)c2cc([N+](=O)[O-])ccc2Cl)cc1 (stereo not shown) [Example 42, 4'-dimethylamino-4"-(N-methyl-N-(2-hydroxyethyl)amino)-2-chloro-5-nitrotriphenylmethane] | 109 |
| CC(=O)OCCN(C)c1ccc(C(c2ccc(N(C)C)cc2)c2cc([N+](=O)[O-])ccc2Cl)cc1 (stereo not shown) [Example 51, 4'-dimethylamino-4"-(N-methyl-N-(2-acetoxyethyl)amino)-2-chloro-5-nitrotriphenylmethane] | 167 |

same assay, conditions: [3H]-Dex ~0.9 nM, GRX cytosol, 4 °C overnight; Cheng-Prusoff; read-out: Ki (nM) GR

| Structure (SMILES) | Ki [nM] |
| --- | --- |
| CC(=O)OCCN(C)c1ccc(C(c2ccc(N(C)CCOC(C)=O)cc2)c2cc([N+](=O)[O-])ccc2Cl)cc1 [Example 31, 4',4" bis(N-(2-acetoxyethyl) N-methylamino)-2-chloro-5-nitrotriphenylmethane] | 145 |
| O=[N+]([O-])c1ccc(Cl)c(C(c2ccc(NCc3ccccc3)cc2)c2ccc(NCc3ccccc3)cc2)c1 [Example 36, 4',4" bis(N-benzylamino)-2-chloro-5-nitrotriphenylmethane] | 38 |
| CNc1ccc(C(c2ccc(NC)cc2)c2cc(Cl)ccc2Cl)cc1 [Example 27, 4',4" bis(methylamino)-2,5-dichlorotriphenylmethane] | 71 |
| CN(C)c1ccc(C(Sc2ccccc2)c2cc([N+](=O)[O-])ccc2Cl)cc1 (stereo not shown) [Example 54, phenyl-[(4'-dimethylaminophenyl)-(2-chloro-5-nitrophenyl)methyl]thioether] | 227 |
| CNc1ccc(C(c2ccc(NC)cc2)c2cc([N+](=O)[O-])ccc2Cl)cc1 [Example 23, 4',4" bis(methylamino)-2-chloro-5-nitrotriphenylmethane] | 60 |
| CN(C)c1ccc(C(c2ccc(N(C)C)cc2)c2cc([N+](=O)[O-])ccc2Cl)cc1 [Example 1, 4',4" bis(dimethylamino)-2-chloro-5-nitrotriphenylmethane] | 272 |
| CNc1ccc(C(c2ccc(N(C)CCOC(C)=O)cc2)c2cc([N+](=O)[O-])ccc2Cl)cc1 (stereo not shown) [Example 49, 4'-methylamino-4"-(N-(2-acetoxyethyl)-N-methylamino)-2-chloro-5-nitrotriphenylmethane] | 135 |
| CN(C)c1ccc(C(Oc2ccccc2)c2cc([N+](=O)[O-])ccc2Cl)cc1 (stereo not shown) [Example 52, phenyl-[(4'-dimethylaminophenyl)-(2-chloro-5-nitrophenyl)methyl] ether] | 733 |
| CN(CCO)c1ccc(C(c2ccc(N(C)CCO)cc2)c2cc([N+](=O)[O-])ccc2Cl)cc1 [Example 32, 4',4" bis(N-(2-hydroxyethyl) N-methylamino)-2-chloro-5-nitrotriphenylmethane] | 136 |
